Measurements published in ChEMBL document CHEMBL6182925 (J Med Chem, 2025).
pEC50, pIC50: −log10 of the molar value. ≈ marks a conversion by molar mass, not a printed value.

How the values were obtained:
[1] = molecular target: hERG (Homo sapiens, UniProt Q12809); experiment: Inhibition of hERG at 10 uM by CEREP analysis relative to control; format: toxicity
[2] = Clearance in male Sprague-Dawley rat at 3 mg/kg, iv; format: ADME, organism-based; conditions: in vivo
[3] = test system: BaF3; experiment: cells; conditions: Mus musculus, BaF3, 72 h
[4] = Half life in male Beagle dog at 1 mg/kg, iv; format: ADME, organism-based, Canis lupus familiaris; conditions: in vivo
[5] = Kinetic solubility of compound at pH 2; format: physicochemical; conditions: buffer, read-out: Kinetic_solubility
[6] = cells; conditions: Mus musculus, BaF3/TRP-Met, 72 h
[7] = Oral bioavailability in Balb/c mouse at 10 mg/kg; format: ADME, organism-based; conditions: in vivo
[8] = species on record: Homo sapiens; experiment: Inhibition of sodium channel site 2 (unknown origin) at 10 uM by CEREP analysis relative to control
[9] = test system: BaF3; experiment: cells; conditions: Mus musculus, BaF3, 72 h; remark: listed apart in the source
[10] = Kinetic solubility of compound at pH 4.5; format: physicochemical; conditions: buffer, read-out: Kinetic_solubility
[11] = Oral bioavailability in male Sprague-Dawley rat at 10 mg/kg; format: ADME, organism-based; conditions: in vivo
[12] = Antitumor activity against human LU2503 cells xenografted in athymic BALB/c nude mouse at 60 mg/kg, po bid treated for 14 days relative to control; format: functional; conditions: LU2503, 336 h, time 14 day, read-out: TGI
[13] = Oral bioavailability in male Beagle dog at 10 mg/kg; format: ADME, organism-based, Canis lupus familiaris; conditions: in vivo
[14] = molecular target: T1, Alpha-2A adrenergic receptor (Homo sapiens) (UniProt P08913); experiment: Inhibition of alpha 2A adrenergic receptor (unknown origin) at 10 uM by CEREP analysis relative to control
T1 sequence (whole entry): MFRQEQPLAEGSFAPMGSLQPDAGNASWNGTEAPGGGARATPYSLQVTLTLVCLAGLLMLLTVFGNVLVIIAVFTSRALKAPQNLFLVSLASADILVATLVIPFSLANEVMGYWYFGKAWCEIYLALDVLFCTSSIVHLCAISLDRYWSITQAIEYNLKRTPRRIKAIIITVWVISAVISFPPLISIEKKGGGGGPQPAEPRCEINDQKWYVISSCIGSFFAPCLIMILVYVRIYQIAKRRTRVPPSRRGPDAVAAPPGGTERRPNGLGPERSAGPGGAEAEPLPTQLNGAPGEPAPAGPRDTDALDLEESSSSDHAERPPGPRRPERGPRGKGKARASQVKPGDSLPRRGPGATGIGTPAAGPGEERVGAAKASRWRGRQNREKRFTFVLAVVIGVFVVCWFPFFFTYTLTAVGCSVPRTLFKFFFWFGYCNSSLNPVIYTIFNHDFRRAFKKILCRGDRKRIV

[15] = Antitumor activity against human LU2503 cells xenografted in athymic BALB/c nude mouse at 2 mg/kg, po bid treated for 14 days relative to control; format: functional; conditions: LU2503, 336 h, time 14 day, read-out: TGI
[16] = molecular target: Hepatocyte growth factor receptor (Homo sapiens, UniProt P08581); experiment: Inhibition of N-terminal GST-tagged wild-type human c-MET (956 to 1390 residues) extracted from baculovirus infected Sf21 cells using 5-FAM-KKKKEEIYFFF-CONH2 as substrate preincubated for 30 mins followed by ATP addition measured after 60 mins by fluorescence-based microfluidic mobility shift assay
Hepatocyte growth factor receptor, sequence (P08581 whole entry, the tested form may be a part): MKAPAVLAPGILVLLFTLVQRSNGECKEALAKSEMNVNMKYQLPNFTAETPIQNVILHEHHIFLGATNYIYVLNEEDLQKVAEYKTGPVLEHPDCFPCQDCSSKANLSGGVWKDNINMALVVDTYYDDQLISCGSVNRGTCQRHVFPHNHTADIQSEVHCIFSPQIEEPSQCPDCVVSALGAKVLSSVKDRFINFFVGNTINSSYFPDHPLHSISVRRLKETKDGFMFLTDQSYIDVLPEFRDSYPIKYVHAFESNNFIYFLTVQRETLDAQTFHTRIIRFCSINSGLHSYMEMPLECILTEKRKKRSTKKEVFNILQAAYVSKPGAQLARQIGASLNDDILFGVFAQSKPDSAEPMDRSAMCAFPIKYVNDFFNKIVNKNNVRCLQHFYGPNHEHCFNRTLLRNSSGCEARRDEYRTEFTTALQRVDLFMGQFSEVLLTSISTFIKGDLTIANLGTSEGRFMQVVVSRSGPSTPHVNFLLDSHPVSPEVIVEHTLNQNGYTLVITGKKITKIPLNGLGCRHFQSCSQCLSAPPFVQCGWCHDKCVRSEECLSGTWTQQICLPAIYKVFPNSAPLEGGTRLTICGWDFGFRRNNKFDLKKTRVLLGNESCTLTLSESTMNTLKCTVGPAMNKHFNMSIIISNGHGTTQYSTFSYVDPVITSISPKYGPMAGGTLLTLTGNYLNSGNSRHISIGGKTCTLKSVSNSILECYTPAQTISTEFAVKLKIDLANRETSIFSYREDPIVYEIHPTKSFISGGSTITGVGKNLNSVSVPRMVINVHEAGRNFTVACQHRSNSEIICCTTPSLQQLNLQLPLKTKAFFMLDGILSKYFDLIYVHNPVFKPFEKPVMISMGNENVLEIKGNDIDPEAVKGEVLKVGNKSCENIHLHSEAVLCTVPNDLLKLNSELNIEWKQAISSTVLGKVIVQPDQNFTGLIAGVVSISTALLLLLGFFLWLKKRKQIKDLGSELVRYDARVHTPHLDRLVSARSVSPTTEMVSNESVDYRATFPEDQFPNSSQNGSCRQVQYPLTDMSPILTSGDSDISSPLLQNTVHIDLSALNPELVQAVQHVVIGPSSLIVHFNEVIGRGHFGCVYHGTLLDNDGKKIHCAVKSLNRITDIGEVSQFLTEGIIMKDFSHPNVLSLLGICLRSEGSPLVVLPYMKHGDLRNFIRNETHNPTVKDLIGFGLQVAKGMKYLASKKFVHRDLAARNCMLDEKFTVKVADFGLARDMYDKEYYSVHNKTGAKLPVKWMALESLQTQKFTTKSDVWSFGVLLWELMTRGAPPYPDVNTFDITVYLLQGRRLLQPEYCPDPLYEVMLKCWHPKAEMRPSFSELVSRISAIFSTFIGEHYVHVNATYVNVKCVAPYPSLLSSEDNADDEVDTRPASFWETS

[17] = test system: Mus musculus; experiment: In vivo inhibition of MET phosphorylation in human LU2503 cells xenografted in athymic BALB/c nude mouse administered orally measured after 1 hr post-dose; format: functional, organism-based; conditions: dose 2-60 mg/kg, route po
[18] = test system: BaF3; experiment: cells; conditions: Mus musculus, BaF3, 72 h; remark: listed apart in the source
[19] = molecular target: Macrophage-stimulating protein receptor (Homo sapiens) (UniProt Q04912); experiment: Inhibition of wild-type RON (unknown origin) at 100 nM by kinome selectivity analysis relative to control
Macrophage-stimulating protein receptor (Homo sapiens), sequence (Q04912 25-304 limits assumed): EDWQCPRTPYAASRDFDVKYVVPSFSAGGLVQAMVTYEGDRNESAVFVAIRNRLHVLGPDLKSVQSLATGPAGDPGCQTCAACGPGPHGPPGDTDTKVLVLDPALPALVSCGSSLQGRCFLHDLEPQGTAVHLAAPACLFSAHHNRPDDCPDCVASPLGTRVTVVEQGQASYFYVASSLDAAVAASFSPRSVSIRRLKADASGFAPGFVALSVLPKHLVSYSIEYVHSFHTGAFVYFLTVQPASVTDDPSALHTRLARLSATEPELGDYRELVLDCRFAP
Macrophage-stimulating protein receptor (Homo sapiens), sequence (Q04912 310-1400 limits assumed): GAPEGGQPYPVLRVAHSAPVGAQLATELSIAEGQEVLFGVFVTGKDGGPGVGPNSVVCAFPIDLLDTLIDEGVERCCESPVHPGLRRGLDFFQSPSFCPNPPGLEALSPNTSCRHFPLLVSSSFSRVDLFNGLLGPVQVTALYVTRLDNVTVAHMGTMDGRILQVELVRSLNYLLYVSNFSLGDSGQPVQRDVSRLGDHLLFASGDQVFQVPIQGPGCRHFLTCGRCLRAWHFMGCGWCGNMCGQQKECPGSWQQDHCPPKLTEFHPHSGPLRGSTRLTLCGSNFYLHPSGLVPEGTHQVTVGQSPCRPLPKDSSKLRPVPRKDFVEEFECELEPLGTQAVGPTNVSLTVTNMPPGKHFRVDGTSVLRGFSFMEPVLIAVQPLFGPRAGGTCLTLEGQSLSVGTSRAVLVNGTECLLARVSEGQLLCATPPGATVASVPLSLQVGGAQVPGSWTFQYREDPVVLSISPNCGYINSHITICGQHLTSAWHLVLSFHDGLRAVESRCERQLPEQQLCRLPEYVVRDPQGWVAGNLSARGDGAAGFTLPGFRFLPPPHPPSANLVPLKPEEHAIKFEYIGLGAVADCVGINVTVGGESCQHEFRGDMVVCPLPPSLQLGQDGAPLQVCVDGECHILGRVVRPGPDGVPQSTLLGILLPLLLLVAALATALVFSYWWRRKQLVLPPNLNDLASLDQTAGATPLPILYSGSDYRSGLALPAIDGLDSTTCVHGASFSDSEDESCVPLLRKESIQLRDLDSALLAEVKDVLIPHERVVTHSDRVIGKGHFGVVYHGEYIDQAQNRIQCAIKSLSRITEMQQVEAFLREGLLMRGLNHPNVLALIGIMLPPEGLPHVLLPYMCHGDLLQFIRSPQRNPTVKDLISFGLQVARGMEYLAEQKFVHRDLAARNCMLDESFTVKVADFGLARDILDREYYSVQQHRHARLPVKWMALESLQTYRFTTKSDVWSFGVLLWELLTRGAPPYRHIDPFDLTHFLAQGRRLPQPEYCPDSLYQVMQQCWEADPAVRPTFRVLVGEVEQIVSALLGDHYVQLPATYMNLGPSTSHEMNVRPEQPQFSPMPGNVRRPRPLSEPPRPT

[20] = molecular target: L-type calcium channel (Homo sapiens, UniProt O60840+Q01668+Q13698+Q13936); experiment: Inhibition of Calcium channel L-type (unknown origin) at 10 uM by CEREP analysis relative to control; format: protein assay
[21] = species on record: Homo sapiens; experiment: Inhibition of c-MET L1195X/F1200X mutant (unknown origin) at 100 nM in presence of ATP by HotSpot Kinome Selectivity analysis
[22] = Antitumor activity against human LU2503 cells xenografted in athymic BALB/c nude mouse at 20 mg/kg, po bid treated for 14 days relative to control; format: functional; conditions: LU2503, 336 h, time 14 day, read-out: TGI
[23] = test system: BaF3; experiment: Antitumor activity against mouse BaF3 cells harboring TPR-D1228N mutant cells allografted in athymic BALB/c nude mouse at 60 mg/kg, po bid treated for 10 days relative to control; format: functional; conditions: BaF3, 240 h, time 10 day, read-out: TGI
[24] = species on record: Homo sapiens; experiment: Inhibition of c-MET D1228 mutant (unknown origin) at 100 nM in presence of ATP by HotSpot Kinome Selectivity analysis
[25] = species on record: Homo sapiens; experiment: Inhibition of c-MET D1228X/Y1230X mutant (unknown origin) at 100 nM in presence of ATP by HotSpot Kinome Selectivity analysis
[26] = Toxicity in athymic BALB/c nude mouse xenografted with human EBC-1 cells assessed as body weight loss at 2 to 60 mg/kg, po bid treated for 10 to 21 days; format: organism-based; conditions: in vivo, dose lower 2 mg/kg, time lower 10 day, dose upper 60 mg/kg, time upper 21 day
[27] = Half life in female Balb/c mouse at 1 mg/kg, iv; format: ADME, organism-based; conditions: in vivo
[28] = Half life in male Sprague-Dawley rat at 3 mg/kg, iv; format: ADME, organism-based; conditions: in vivo
[29] = test system: BaF3; experiment: cells; conditions: Mus musculus, BaF3, 72 h; remark: listed apart in the source
[30] = test system: BaF3; experiment: cells; conditions: Mus musculus, BaF3, 72 h; remark: listed apart in the source
[31] = test system: BaF3; experiment: cells; conditions: Mus musculus, BaF3, 72 h; remark: listed apart in the source
[32] = molecular target: 5-hydroxytryptamine receptor 2B (Homo sapiens) (UniProt P41595); experiment: Inhibition of 5-HT2B receptor (unknown origin) at 10 uM by CEREP analysis relative to control
[33] = test system: BaF3; experiment: cells; conditions: Mus musculus, BaF3, 72 h; remark: listed apart in the source
[34] = test system: EBC-1; experiment: Antitumor activity against human EBC-1 cells xenografted in athymic BALB/c nude mouse at 20 mg/kg, po bid treated for 21 days relative to control; format: functional; conditions: EBC-1, 504 h, time 21 day, read-out: TGI
[35] = species on record: Homo sapiens; experiment: Inhibition of c-MET G1163R mutant (unknown origin) at 100 nM in presence of ATP by HotSpot Kinome Selectivity analysis
[36] = Toxicity in athymic BALB/c nude mouse allografted with mouse BaF3 cells harboring TPR-D1228N mutant assessed as body weight loss at 2 to 60 mg/kg, po bid treated for 10 to 21 days; format: organism-based; conditions: in vivo, dose lower 2 mg/kg, time lower 10 day, dose upper 60 mg/kg, time upper 21 day
[37] = molecular target: Cytochrome P450 3A4 (Homo sapiens, UniProt P08684); experiment: Inhibition of CYP3A4 (unknown origin); format: ADME; conditions: human
Cytochrome P450 3A4, sequence (P08684 whole entry): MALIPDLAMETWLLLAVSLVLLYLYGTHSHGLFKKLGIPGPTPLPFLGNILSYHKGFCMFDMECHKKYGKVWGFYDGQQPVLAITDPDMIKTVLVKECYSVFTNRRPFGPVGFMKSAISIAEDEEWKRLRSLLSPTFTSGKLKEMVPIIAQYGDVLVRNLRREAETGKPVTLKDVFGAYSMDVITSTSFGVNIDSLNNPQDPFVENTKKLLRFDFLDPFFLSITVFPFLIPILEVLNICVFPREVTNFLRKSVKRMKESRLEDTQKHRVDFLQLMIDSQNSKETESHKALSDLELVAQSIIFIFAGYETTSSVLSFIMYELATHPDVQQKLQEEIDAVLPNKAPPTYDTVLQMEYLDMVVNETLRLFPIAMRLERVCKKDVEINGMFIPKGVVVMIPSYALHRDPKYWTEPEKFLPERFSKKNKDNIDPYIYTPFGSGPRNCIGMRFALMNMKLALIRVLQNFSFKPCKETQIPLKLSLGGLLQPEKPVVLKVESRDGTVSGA

[38] = molecular target: 5-hydroxytryptamine receptor 1B (Homo sapiens) (UniProt P28222); experiment: Inhibition of 5-HT1B receptor (unknown origin) at 10 uM by CEREP analysis relative to control
5-hydroxytryptamine receptor 1B (Homo sapiens), sequence (P28222 whole entry): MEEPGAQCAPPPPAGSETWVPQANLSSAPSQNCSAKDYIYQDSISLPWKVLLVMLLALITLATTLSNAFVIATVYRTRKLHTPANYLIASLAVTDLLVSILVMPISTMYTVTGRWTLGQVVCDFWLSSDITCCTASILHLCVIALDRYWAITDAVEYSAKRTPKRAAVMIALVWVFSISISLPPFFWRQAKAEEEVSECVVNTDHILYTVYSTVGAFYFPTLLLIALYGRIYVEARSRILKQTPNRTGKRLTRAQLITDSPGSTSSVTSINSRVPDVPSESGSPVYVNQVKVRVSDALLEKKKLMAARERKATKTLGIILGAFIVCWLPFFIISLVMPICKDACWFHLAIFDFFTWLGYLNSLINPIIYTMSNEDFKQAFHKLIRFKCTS

hERG, sequence (Q12809 whole entry): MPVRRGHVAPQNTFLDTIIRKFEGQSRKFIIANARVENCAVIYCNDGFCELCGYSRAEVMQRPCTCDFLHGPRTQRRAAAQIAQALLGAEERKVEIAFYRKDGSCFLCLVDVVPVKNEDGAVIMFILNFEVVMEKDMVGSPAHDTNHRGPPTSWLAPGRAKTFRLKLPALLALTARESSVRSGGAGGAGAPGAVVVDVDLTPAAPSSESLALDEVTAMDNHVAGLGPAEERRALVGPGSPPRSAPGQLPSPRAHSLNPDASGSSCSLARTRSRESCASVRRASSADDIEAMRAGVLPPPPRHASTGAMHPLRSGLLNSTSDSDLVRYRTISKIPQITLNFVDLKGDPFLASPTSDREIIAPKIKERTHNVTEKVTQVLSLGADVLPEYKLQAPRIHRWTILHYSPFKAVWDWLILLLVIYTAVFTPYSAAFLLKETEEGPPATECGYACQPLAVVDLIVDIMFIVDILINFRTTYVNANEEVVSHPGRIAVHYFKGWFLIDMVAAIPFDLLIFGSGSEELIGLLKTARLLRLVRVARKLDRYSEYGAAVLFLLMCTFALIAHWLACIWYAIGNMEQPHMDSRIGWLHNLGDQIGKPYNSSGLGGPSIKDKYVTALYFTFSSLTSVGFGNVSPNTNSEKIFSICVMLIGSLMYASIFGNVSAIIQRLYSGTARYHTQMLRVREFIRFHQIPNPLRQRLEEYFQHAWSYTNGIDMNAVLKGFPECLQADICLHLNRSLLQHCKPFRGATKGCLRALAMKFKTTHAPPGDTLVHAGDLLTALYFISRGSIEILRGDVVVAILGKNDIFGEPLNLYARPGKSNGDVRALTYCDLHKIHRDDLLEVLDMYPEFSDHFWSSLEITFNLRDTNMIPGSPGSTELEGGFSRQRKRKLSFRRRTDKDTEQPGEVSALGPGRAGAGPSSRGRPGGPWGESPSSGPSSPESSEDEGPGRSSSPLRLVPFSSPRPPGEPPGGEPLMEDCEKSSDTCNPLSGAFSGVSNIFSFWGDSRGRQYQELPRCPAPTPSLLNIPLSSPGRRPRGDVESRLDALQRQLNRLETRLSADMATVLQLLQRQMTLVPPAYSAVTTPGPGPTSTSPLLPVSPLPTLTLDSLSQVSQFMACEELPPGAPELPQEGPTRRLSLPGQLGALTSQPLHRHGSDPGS

Compound `COc1cc2nccc(Oc3c(F)cc(NC(=O)c4cnccc4OC)cc3F)c2cc1O[C@@H](C)CO` has an inhibition at 10 µM [1] of 18%, a clearance [2] of 11.2 mL/min/kg and a pEC50 [3] of 8.11. It also gave a half-life [4] of 6.3 h, a solubility kinetic [5] of 288 µM (≈ 147 µg/mL) and a pEC50 [6] of 7.96. For the same compound, the bioavailability [7] was 100%, the inhibition [8] was 40% and the pEC50 [9] was 8.49. The solubility kinetic [10] was 145 µM (≈ 74.2 µg/mL), the bioavailability [11] was 100% and the inhibition in vivo at 60 mg/kg [12] was 113%. It also gave a bioavailability [13] of 56%, an inhibition [14] of 6% and an inhibition in vivo at 2 mg/kg [15] of 43%. For the same compound, the pIC50 [16] was 9.70, the inhibition [17] was “Dose-dependent-effect” and the pEC50 [18] was 8.04. It also gave an inhibition [19] of over 90%, an inhibition at 10 µM [20] of -4% and an inhibition [21] of -4%. The inhibition in vivo at 20 mg/kg [22] was 110%, the inhibition in vivo at 60 mg/kg [23] was 128% and the inhibition [24] was 0%. For the same compound, the inhibition [25] was 49%, the Activity [26] was “Non-toxic” and the half-life [27] was 1.8 h. It also gave a half-life [28] of 4.9 h, a pEC50 [29] of 7.29 and a pEC50 [30] of 8.04. For the same compound, the pEC50 [31] was 7.43, the inhibition [32] was 48% and the pEC50 [33] was 7.89. The inhibition in vivo at 20 mg/kg [34] was 88%, the inhibition [35] was 63% and the Activity [36] was “Non-toxic”. The “inhibition (INH)” value [37] was “Not_active” and the inhibition [38] was -3%.
